The target in this assay is benzodiazepine site of the GABAA receptor. As to the kind of experiment: Binding assay (3H-Ro15-1788 displacement, rat cortical tissue homogenate). The settings on record: 0.5 nM 3H-Ro15-1788 [3H-Flumazenil], 30 min at 4° C., Cheng-Prussof equation.

As for `CC1CCc2[nH]cc(C(=O)Nc3ccccn3)c2C(=O)C1` (stereo not drawn) [Example 2, 6-Methyl-4-oxo-1,4,5,6,7,8-hexahydro-cydohepta[b]pyrrole-3-carboxylic acid pyridin-2-ylamide], the affinity corresponds to a Ki of 2 nM. In other words, the single-digit nanomolar range.
Regarding `CC(C)C1CCc2[nH]cc(C(=O)Nc3ccccn3)c2C(=O)C1` (stereo not drawn) [Example 3, 6-Isopropyl-4-oxo-1,4,5,6,7,8-hexahydro-cyclohepta[b]pyrrole-3-carboxylic acid pyridin-2-ylamide], the Ki (in general, the equilibrium dissociation constant of an inhibitor or competing ligand from its target) was found to be 1 nM.
`O=C(Nc1ccccn1)c1c[nH]c2c1C(=O)CC(c1ccc(F)cc1)CC2` (stereo not drawn) [Example 4, 6-(4-Fluoro-phenyl)-4-oxo-1,4,5,6,7,8-hexahydrocyclohepta[b]pyrrole-3-carboxylic acid pyridin-2-ylamide] had a Ki of 7 nM. Against the preceding molecule, the Ki is about 7-fold higher.
Next, `COc1ccc(C2CCc3[nH]cc(C(=O)Nc4ccccn4)c3C(=O)C2)cc1F` (stereo not drawn) [Example 5, 6-(3-Fluoro-4-methoxy-phenyl)-4-oxo-1,4,5,6,7,8-hexahydro-cyclohepta[b]pyrrole-3carboxylic acid pyridin-2-ylamide]: 8 nM; `O=C(Nc1ccccn1)c1c[nH]c2c1C(=O)C1CN(Cc3ccccc3)CC1CC2` (stereo not drawn) [Example 6, 6-Benzyl-4-oxo-4,4a,5,6,7,7a,8,9-octahydro-1H-1,6-diaza-cyclopenta[f]azulene-3-carboxylic acid pyridin-2-ylamide]: 4 nM.
`O=C(Nc1ccccn1)c1c[nH]c2c1C(=O)C1CNCC1CC2` (stereo not drawn) [Example 7, 4-Oxo-4,4a,5,6,7,7a,8,9-octahydro-1H-1,6-diaza-cyclopenta[f]azulene-3-carboxylic acid pyridin-2-ylamide] gave a Ki of 7 nM.
As to `CN1CC2CCc3[nH]cc(C(=O)Nc4ccccn4)c3C(=O)C2C1` (stereo not drawn) [Example 8, 6-Methyl-4-oxo-4,4a,5,6,7,7a,8,9-octahydro-1H-1,6-diaza-cyclopenta[f]azulene-3-carboxylic acid pyridin-2-ylamide], the affinity corresponds to a Ki of 8 nM.
In the case of `CN(C)CC1CCc2[nH]cc(C(=O)Nc3ccccn3)c2C(=O)C1` (stereo not drawn) [Example 9, 6-Dimethylaminomethyl-4-oxo-1,4,5,6,7,8-hexahydro-cyclohepta[b]pyrrole-3-carboxylic acid pyridin-2-ylamide], the Ki is 23 nM. Compared with the last molecule, the Ki is about 2.9-fold higher.
The value for `O=C(Nc1ccccn1)C1C=NC2=C1C(Nc1ccccn1)CCCC2` (stereo not drawn) [Example 10, 4-(Pyridin-2-ylamino)-3,4,5,6,7,8-hexahydro-cyclohepta[b]pyrrole-3-carboxylic acid pyridin-2-ylamide] was 24 nM.

(Values after patent US6861529B2, “Cycloalkypyrrole-3-carboxylic acid derivatives and heterocycloalkylpyrrole-3-carboxylic acid derivatives” (Pfizer Inc, priority 2001, dated 2005).)
